# Literature values, collected in patent US8541461B2 (Astex Therapeutics Limited, priority 2005, dated 2013).
# Key:
# [1] = tested on: PKC; settings: cited from earlier work
# [2] = tested on: PKG; settings: cited from earlier work
# [3] = tested on: OVCAR-3 tumour cells; settings: concentrations of 50 and 100 microM; cited from earlier work
smiles,measurement,setting,value
O=S(=O)(NCCNCC=C(c1ccccc1)c1ccccc1)c1cccc2cnccc12 [NL-71-101],IC50,[1],104 µM
same,IC50,[2],36 µM
same,"apoptosis in OVCAR-3 tumour cells, in which PKB is amplified",[3],induced apoptosis
